Assay results: patent publication US8222260B2, “Substituted 6-anilinopurine derivatives as inhibitors of cytokinin oxidase/dehydrogenase and preparations containing these derivatives” (Univerzita Palackego V Olomouci, priority 2007, dated 2012)

Experiments:
NIH-3T3 (fibroblasts) = assay: Calcein AM cytotoxicity assay; assay type: cell-based, Mouse; details: 72 hours
In short: (§1)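 Cells seeded at 2.500-30.000 per well, pre-incubated 24 hours, then exposed to compound (usually six 3-fold dilutions, triplicates) for 72 hours at 37° C, 5% CO2; NIH-3T3 grown in DMEM with 10% fetal calf serum. Calcein AM added at 1 μg/ml final, fluorescence read after 1 hour. GI calculated as blank-corrected fluorescence relative to untreated control.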

B16-F0 = assay: Calcein AM cytotoxicity assay; assay type: cell-based, Mouse; details: 72 hours
[1] = test system: erytroid leukemia cell line K-562; assay: Calcein AM cytotoxicity assay; assay type: cell-based, human; details: 72 hours
In short: (§2)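 Cells seeded at 2.500-30.000 per well, pre-incubated 24 h, then exposed 72 h at 37 °C to six 3-fold dilutions (top 166.6 μM), in triplicate. Calcein AM added to 1 μg/ml for 1 h; fluorescence gives growth inhibition, GI50 taken from dose-response curves.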

[2] = test system: osteosarcoma cell line HOS; assay: Calcein AM cytotoxicity assay; assay type: cell-based, human; details: 72 hours
In short: as §2

melanoma cell line G-361 = assay: Calcein AM cytotoxicity assay; assay type: cell-based, human; details: 72 hours
In short: as §2

[3] = test system: promyelocytic leukemia cell line HL-60; assay: Calcein AM cytotoxicity assay; assay type: cell-based, human; details: 72 hours, read-out: GI50 HL60
In short: as §1

[4] = test system: breast carcinoma cell line MCF-7; assay: Calcein AM cytotoxicity assay; assay type: cell-based, human; details: 72 hours, read-out: GI50 MCF7
[5] = test system: T-lymphoblastic leukemia cell line CEM; assay: Calcein AM cytotoxicity assay; assay type: cell-based, human; details: 72 hours
[6] = test system: Human diploid fibroblasts HCA; assay: Anti-aging activity: senescence-associated beta-galactosidase in human fibroblasts; assay type: cell-based
Procedure: In this example, effects of the compounds of this invention on the activity of a senescence biomarker senescence-associated β-galactosidase was studied. Human diploid fibroblasts HCA of various passage levels were used for this purpose. The tested compounds were added to the medium at each passage. After the incubation period, cells were washed with PBS and fixed with 2% formaldehyde and 0.2% glutaraldehyde in PBS. After another wash with PBS, they were incubated with the staining solution comprising potassium ferricyanide (5 mM), potassium ferrocyanide (5 mM), MgCl2 (2 mM), X-gal (5-bromo-4-chloro-3-indolyl-β-D-galactopyranoside) (1 mg/ml), in citric/phosphate buffer (pH 6.0) at 37° C. (without CO2) for at least 1 hour. Following the incubation period, the numbers of cells expressing senescence-associated β-galactosidase (blue cells) were counted using light microscope.

[7] = test system: Rat C6 glioma (ATCC No. CCL107); assay: Anti-inflammatory activity: isoproterenol-induced cAMP synthesis (ELISA); assay type: cell-based; details: cAMP after 30 min, induced by (−)-isoproterenol
Procedure: Anti-inflammatory activity of several of the substituted 6-anilinopurine derivatives of this invention was determined; kinetin was also evaluated as a control. Rat C6 glioma (ATCC No. CCL107) was cultivated in monolayer in serum-free chemically defined medium containing Ham's F10/minimal essential medium (1:1 v/v), 2 mM L-glutamine, 1% (v/v) minimal essential medium vitamins (100×), 1% (v/v) minimal essential medium nonessential amino acids (100×), 100 U/ml penicillin, […], and 30 nM sodium selenite. Incubation was performed at 37° C. in a 100% humidified atmosphere. The assays were performed in the logarithmic growth phase at a density of 2.5×10^5 cells/cm^2. Intracellular cAMP synthesis was induced by addition of 5 mM (−)-isoproterenol; various amounts of test compounds were added at the same time as the (−)-isoproterenol. After 30 min incubation, the cellular amount of cAMP was determined using ELISA (cAMP-enzyme immunoassay kit from Amersham). The I50 values were determined from the dose-response curve in duplicate.

[8] = test system: Salmonella typhimurium TA98 and TA100; assay: Ames test; assay type: cell-based; details: 2.5 to 5000 μg/plate
Procedure: Amest test was used in order to exclude mutagenic effect of 2-chloro-6-(4-hydroxyanilino)purine. Histidin auxotrophs of Salmonella typhimurium TA98 and TA100 were used as indicator strains and the test was carried out according to standard protocols (Ames et al., Mutation Research, 31, 347-364 (1975); Maron et al., Mutation Research, 113, 173-215 (1983)). Tested concentrations were as follows: 2.5, 5.0, 15, 50, 500, 1500, a 5000 μg/plate. The compound was not mutagenic even in the concentrations exceeding its solubility limit in the culture medium.

| Compound | GI50 (NIH-3T3 (fibroblasts)) [µM] | GI50 (B16-F0) [µM] | GI50 [1] [µM] | GI50 [2] [µM] | GI50 (melanoma cell line G-361) [µM] | GI50 [3] [µM] | GI50 [4] [µM] | GI50 [5] [µM] | Senescent Cells (%) HCA passage 25 ([6]; passage 25, cells expressing senescence-associated beta-galactosidase) [%] | Senescent Cells (%) HCA passage 50 ([6]; passage 50, cells expressing senescence-associated beta-galactosidase) [%] | Senescent Cells (%) HCA passage 80 ([6]; passage 80, cells expressing senescence-associated beta-galactosidase) [%] | IC50 ([7]; Rattus norvegicus, C6 glioma, 0.5 h, read-out: I50) [µM] | Effect (anti-inflammatory activity) [7] | mutagenic effect [8] |
| --- | --- | --- | --- | --- | --- | --- | --- | --- | --- | --- | --- | --- | --- | --- |
| Oc1ccccc1CNc1ncnc2nc[nH]c12 [ortho-topolin, reference compound] | > 167 | 150 | > 167 | > 167 | 103 | 78 | > 167 | 69.2 | – | – | – | – | – | – |
| Oc1ccc(Nc2nc(Cl)nc3nc[nH]c23)cc1 [Compound 10, 2-chloro-6-(4-hydroxyanilino)purine] | – | – | – | – | – | – | – | – | 4 | 6 | 22 | 13 | Inhibition | not mutagenic |
| Oc1cccc(CNc2ncnc3nc[nH]c23)c1 [meta-topolin, reference compound] | > 167 | 90.6 | 128 | > 167 | > 167 | 79.2 | > 167 | 90.1 | – | – | – | – | – | – |
